Source: US9005644B2, “Pesticidal compositions” (BASF Corporation, priority 2008, dated 2015)
Where “and” joins values, the source holds several entries; their conditions need not be identical. Equal entries are not always repeated.

Tests used:
[1] = tested on: cockroaches; experiment: LD50 and LD10 determination for cockroaches (dose-response mortality, probit analysis); format: in vivo; settings: for LD10 mg/insect / LD50 mg/insect: cockroaches, probit analysis
Description: In this example, various mineral oils and alcohols were tested to determine, for cockroaches, the LD50 and LD10 for each.
PD23 and PD28 mineral oils were obtained from Sonneborn LLC, Mahwah, N.J. The physical properties of these oils are shown in Table 11. Each mineral oil was tested to determine the LD50 and LD10 (Table 12).
The tested alcohols were obtained from Sigma-Aldrich Corp., St. Louis, Mo. Each alcohol was tested to determine the LD50 and LD10 (Table 12).

[2] = tested on: German cockroaches; experiment: Topical toxicity evaluation on adult German cockroaches, mortality (dead/moribund) at 24 hours; format: in vivo, Blattella germanica (German cockroach)
Description: Toxicity evaluations were performed on 7-14 day old adult male and female German cockroaches (SCJ Strain, S.C. Johnson & Son, Racine, Wis.). Approximately 12 cockroaches were transferred to individual 100×20 mm polystyrene Petri dishes and anesthetized with a 15-25 second exposure to carbon dioxide. The inside edge of each Petri dish was lightly coated with mineral oil plus petroleum jelly in a 1:3 (wt/wt) ratio to minimize escape. Anesthetized cockroaches were positioned with their ventral side up, and a 1 μl drop of the diluted test composition was applied to the area between the meso- and metathoracic legs using a Rainin L-10, 10 μl capacity pipette (Rainin Instrument, LLC, Oakland, Calif.). Five replications of 12 male cockroaches were done for each test composition. Separate tests were done using female cockroaches. Results were evaluated at 24 hours following treatment. Cockroaches were scored as either alive (dorsal side up, active movement when abdomen prodded with dissecting probe) or moribund/dead (dorsal side up and no movement when abdomen prodded or ventral side up and insect unable to right itself).
The compositions comprising alcohol and/or mineral oil are described in Table 13.

[3] = Table 14, composite data, amounts in label
[4] = Table 17, composite data, amounts in label
[5] = Table 18, Exxsol D95 mineral oil, amounts in label
[6] = Table 3, male cockroaches, remainder acetone, per replicate

CCCCO [Composition 1-butanol, 1-butanol]
LD10 mg/insect [1]: 0.877 mg/insect
LD50 mg/insect [1]: 1.018 mg/insect
# dead at 24 h ([2]; Table 13, per replicate (# treated 10-16), amounts in label, listed as 1-butanol (0.8 mg)): 0 (2×) and 1
Proportion dead at 24 h ([2]; Table 13, per replicate, amounts in label, listed as 1-butanol (0.8 mg)): 0.000 (2×) and 0.100
# dead at 24 h [2, 3]: 1
Proportion dead at 24 h [2, 3]: 0.029

CCC(C)O (stereo not shown) [Composition 2-butanol, 2-butanol]
LD10 mg/insect [1]: 0.881 mg/insect
LD50 mg/insect [1]: 1.188 mg/insect
# dead at 24 h ([2]; Table 13, per replicate (# treated 10-16), amounts in label, listed as 2-butanol (0.8 mg)): 0 (2×) and 1
Proportion dead at 24 h ([2]; Table 13, per replicate, amounts in label, listed as 2-butanol (0.8 mg)): 0.000 (2×) and 0.083
# dead at 24 h [2, 3]: 1
Proportion dead at 24 h [2, 3]: 0.026

C1CCOC1 [Tetrahydrofuran]
Proportion dead at 24 hr ([2]; topical, compound 0.80 mg (PD23 0.40 mg in combinations), 24 h): 0.300
# dead at 24 h ([2]; topical, compound 0.80 mg (PD23 0.40 mg in combinations), 24 h, count of # treated): 3

CCCCCCCCO [Composition 1-octanol, 1-octanol]
# dead at 24 h [2, 3]: 2
Proportion dead at 24 h [2, 3]: 0.054

CCCCCCCCCCO [Composition 1-decanol, 1-decanol]
# dead at 24 h [2, 3]: 1
Proportion dead at 24 h [2, 3]: 0.027

ClC(Cl)Cl [Chloroform-anhydrous (67-66-3) (2.0 mg), Chloroform]
# dead at 24 h [2, 4]: 1
Proportion dead at 24 h [2, 4]: 0.050

ClCCl [Dichloromethane (methylene chloride)]
Proportion dead at 24 hr ([2]; topical, compound 1.50 mg (PD23 0.40 mg in combinations), 24 h): 0.000
# dead at 24 h ([2]; topical, compound 1.50 mg (PD23 0.40 mg in combinations), 24 h, count of # treated): 0

CCC(C)=O [2-butanone]
# dead at 24 h [2, 4]: 3
Proportion dead at 24 h [2, 4]: 0.083

c1ccncc1 [Pyridine (110-86-1) (0.10 mg), Pyridine]
# dead at 24 h [2, 4]: 1
Proportion dead at 24 h [2, 4]: 0.032
increase (difference) in mortality when combined with PD23 mineral oil ([2]; compared to the other alcohols/compounds tested): greatest increase in mortality

CCO [Ethanol]
# dead at 24 h [2, 3]: 1
Proportion dead at 24 h [2, 3]: 0.027

CCCO [Composition 1-propanol, 1-propanol]
LD10 ([1]; as detailed in Example 9): 0.472 mg/insect
LD10 mg/insect [1]: 0.472 mg/insect
LD50 mg/insect [1]: 0.557 mg/insect
# dead at 24 h ([2]; Table 13, per replicate (# treated 10-16), amounts in label, listed as 1-propanol (0.45 mg)): 1 and 0 (2×)
Proportion dead at 24 h ([2]; Table 13, per replicate, amounts in label, listed as 1-propanol (0.45 mg)): 0.083 and 0.000 (2×)
# dead at 24 h [2, 3]: 1
Proportion dead at 24 h [2, 3]: 0.028
# dead at 24 h [2, 5]: 1
Proportion dead at 24 h [2, 5]: 0.028
synergy with EXXSOL D95 ([2]; alone and in combination with Exxsol D95 mineral oil): significant synergy

CC(C)(C)O [tertiary butyl alcohol]
# dead at 24 h ([2]; Table 13, per replicate (# treated 10-16), amounts in label, listed as t-butyl alcohol (0.5 mg)): 0 (3×) and 2
Proportion dead at 24 h ([2]; Table 13, per replicate, amounts in label, listed as t-butyl alcohol (0.5 mg)): 0.000
# dead at 24 h [2, 3]: 2
Proportion dead at 24 h [2, 3]: 0.045

Hexylene glycol [Hexylene glycol (20%)]
Arcsine square root % dead [2, 6]: 0
Proportion dead [2, 6]: 0
Square root % dead [2, 6]: 0
# dead ([2]; Table 3, male cockroaches, remainder acetone, per replicate (# tested 12-14)): 1 and 0 (2×) and 3

CCOCC [diethyl ether (60-29-7) (2.0 mg), diethyl ether]
# dead at 24 h [2, 4]: 0
Proportion dead at 24 h [2, 4]: 0.000
